From patent US12337049B2, “Method for whitening skin using composition for skin whitening” (AMOREPACIFIC CORPORATION, priority 2021, dated 2025) come the findings set out here.

Holding throughout (assay type): cell-based
Assay [1] deals with melanin-producing enzyme (tyrosinase, TRP2) in normal human melanocytes. As to the kind of experiment: Increase in protein expression of melanin-producing enzyme (tyrosinase, TRP2) by pigmentation inducer (IBMX). As to conditions: 100 μM IBMX, 0.001-100 nM, 4 days, FIGS. 7 to 9. The protocol: (§1) Normal human melanocytes are placed on a 6-well plate, and the next day, the medium is changed to a PMA-free melanocyte medium. At this time, they are treated with each composition including the compound represented by Chemical Formula 1-1 (Cayman chemical) in an amount of 0 nM, 0.001 nM, 0.01 nM, 0.1 nM, 1 nM, 10 nM, and 100 nM, respectively (based on the total amount of the composition) along with 100 μM pigmentation inducer (IBMX). After culturing for 4 days, the cells are broken using a lysis buffer in each well and then the proteins are separated. Subsequently, the separated proteins are measured with respect to relative protein expression levels by using a specific antibody for TRP2 (tyrosinase related protein 2), which is a melanin-producing enzyme.

Assay [2] relates to melanin-producing enzymes (TRP1, TRP2) in normal human melanocytes. As to the kind of experiment: Increase in protein expression of melanin-producing enzymes (TRP1, TRP2) by C. acnes. As to conditions: 10^7 CFU/ml live C. acnes, 1 nM to 100 nM, 2 days, FIGS. 11 and 12. Here is the method:
Cutibacterium acnes (C. acnes, ATCC 6919) are inoculated in a BHI medium and cultured at 37° C. under anaerobic conditions for 72 hours to 96 hours, and then, the medium is collected. The collected medium is centrifuged (4° C., 10 minutes at 5,000×g), precipitating the bacteria. The precipitated bacteria are twice washed with phosphate-buffered saline (PBS) and treated up to a final concentration of 10^10 CFU/ml, preparing a live C. acnes stock, and the live C. acnes stock is cryopreserved at −80° C. Normal human melanocytes are placed on 6-well plates, and the next day, the medium is changed to a PMA-free melanocyte medium. Herein, 10^4, 10^5, 10^6, and 10^7 CFU/ml of live C. acnes are treated. After culturing for 2 days, the cells broken by using a lysis buffer in each well to separate proteins. The separated proteins are measured with respect to relative protein expression levels by using a specific antibody for TRP1 (tyrosinase related protein 1) and TRP2 (tyrosinase related protein 2), which are melanin-producing enzymes.
Normal human melanocytes are placed on 6-well plates, and the next day, the medium is changed to a PMA-free melanocyte medium. […] The separated proteins are measured with respect to relative protein expression levels by using a specific antibody for TRP1 (tyrosinase related protein 1) and TRP2 (tyrosinase related protein 2), which are melanin-producing enzymes.

Assay [3] relates to melanin-producing enzyme (tyrosinase, TRP2) in normal human melanocytes. As to the kind of experiment: Increase in protein expression of melanin-producing enzyme (tyrosinase, TRP2) by pigmentation inducer (α-MSH). As to conditions: 500 nM α-MSH, 0.001-100 nM, 4 days, FIGS. 4 to 6. Here is the method:
as §1, with “500 nM” for “100 μM”, “(α-MSH).” for “(IBMX).”

For assay [4], the system named is melanin-producing enzymes (tyrosinase, TRP2) in normal human melanocytes. Nature of the assay: Protein expression of melanin-producing enzymes (tyrosinase, TRP2) in normal human melanocytes without inducer. As to conditions: no inducer, 0.001-100 nM, 4 days. The protocol: as §1, with “to a […] melanocyte medium.” for “to a PMA-free melanocyte medium.”, “of the composition). After culturing” for “of the composition) along with 100 μM pigmentation inducer (IBMX). After culturing”, “antibody for tyrosinase which is a melanin-producing enzyme from, TRP2 (tyrosinase” for “antibody for TRP2 (tyrosinase”, “related protein 2).” for “related protein 2), which is a melanin-producing enzyme.”

As for `CC/C=C\C[C@H](O)/C=C/C=C\C/C=C\C=C\[C@@H](O)C/C=C\CCC(=O)O` [Chemical Formula 1-1], the “increase in protein expression of the melanin-producing enzyme (tyrosinase, TRP2) by IBMX” value in assay [1] is on record as “effectively inhibited”. In assay [2], the “increase in protein expression of the melanin-producing enzyme (TRP1, TRP2) by C. acnes” value is “effectively inhibited”. The “increase in protein expression of the melanin-producing enzyme (tyrosinase, TRP2) by α-MSH” value in assay [3] is “effectively inhibited”. Besides, in assay [4] (antibody detection vs GAPDH, FIGS. 1 to 3), the “increase in the protein expression of the melanin-producing enzyme (tyrosinase, TRP2)” value is recorded as “effectively inhibited”. Moreover, the “increase in protein expression of the tyrosinase” value in assay [4] (concentration dependence) is listed as “effectively inhibited depending on a concentration”.
